According to patent US11446269B2, “Methods of reducing or preventing oxidation of small dense LDL or membrane polyunsaturated fatty acids” (Amarin Pharmaceuticals Ireland Limited, priority 2014, dated 2022):
Values joined by “and” are separate entries in the source; they are usually repeats but may differ in a detail not shown here. Identical values can stand only once.

Legend:
[1] = LOOH formation in glucose-treated model membranes, EPA versus EA and ETE (Example 5); type: biochemical; details: 72 or 96 hr autoxidation
Method: An experiment was conducted to compare the ability of EPA to prevent lipid hydroperoxide formation in model membranes treated with glucose to two other 20-carbon fatty acids: eicosanoic acid (“EA,” also referred to as arachidic acid, C20:0) and eicosatrienoic acid (“ETE,” C20:3, n-3). All MLV samples were subjected to time-dependent autoxidation by incubating at 37° C. in an uncovered, shaking water bath. This method allows lipid peroxidation to occur gradually without requiring the use of exogenous initiators. Small aliquots (5-100 μL) of each sample were removed, immediately following MLV preparation (0 hr) and after exposing samples to oxidative conditions for 72 or 96 hr, and combined with 1.0 mL of activated CHOD-iodide color reagent. Aliquot volume was reduced with each successive time point to ensure that spectrophotometric readings were within the optimal adsorption range. Test samples were covered and incubated in darkness at room temperature for at least 4 hr. Sample absorbances were then measured against a CHOD blank at 365 nm using a Beckman DU-640 spectrophotometer. The CHOD colorimetric assay is based on the oxidation of iodide (I^−) by lipid hydroperoxide (LOOH) to form triiodide (I3^−), the quantity of which is directly proportional to the amount of LOOH present in the lipid sample. The molar absorptivity (ε) of I3^− is 2.46×10^4 M^−1 cm^−1 at 365 nm.

human sdLDL = experiment: Copper-induced sdLDL oxidation, TBARS (Example 7); type: biochemical
Method: (§1) An experiment to study the antioxidant effect of EPA in LDL and small dense […] performed. […] Fenofibrate, gemfibrozil, and niacin were purchased from Sigma-Aldrich. […] Vitamin E was also incubated with sample aliquots as a positive control.

unfractionated LDL = experiment: Copper-induced oxidation of unfractionated LDL, TBARS (Example 7); type: biochemical, human; details: 10 μM, 1 hr
Method: as §1

[2] = X-ray diffraction of cholesterol domains in POPC/cholesterol model membranes, C/P 1.5:1 (Example 9); details: drug-to-phospholipid mole ratio 1:30, C/P 1.5:1
Method: Multilamellar vesicles (MLVs) were prepared as binary mixtures that include palmitoyloleoylphosphatidylcholine (POPC) (1.0 mg total phospholipid per sample) and cholesterol at an elevated cholesterol-to-phospholipid (C/P) mole ratio of 1.5:1. […] Samples were shell-dried under nitrogen gas and placed under vacuum for 3 hours to remove residual solvent at room temperature. After desiccation, each sample was resuspended in saline buffer (0.5 mM HEPES, 154 mM NaCl, pH 7.3) to yield a final phospholipid concentration of 2.5 mg/mL. Lipid suspensions were then vortexed for 3 minutes at ambient temperature to form MLVs.
Briefly, a 100 μL aliquot of each MLV preparation (containing 250 μg MLV) was transferred to a Lucite® sedimentation cell fitted with an aluminum foil substrate designed to collect MLVs into a single membrane pellet upon centrifugation. Samples were then loaded into a Sorvall AH-629 swinging bucket rotor (DuPont Corp., Wilmington, Del.) and centrifuged at 35,000 g, 5° C., for 90 minutes.
After centrifugal orientation, sample supernatants were aspirated and aluminum foil substrates, each supporting a single membrane pellet, were removed from the sedimentation cells. Sample pellets were dried for 5-10 minutes at ambient conditions, mounted onto curved glass supports, and placed in hermetically-sealed, brass or glass containers (for immediate analysis or temporary storage, respectively). All x-ray diffraction experiments were conducted at 20° C., 74% relative humidity. The latter was established by exposing membrane samples to saturated solutions of […] (K2C4H4O6.½H2O) for at least 1 hour prior to experimental analysis.
Oriented membrane samples were aligned at grazing incidence with respect to a collimated, mono-chromatic CuKα x-ray beam (Kα1 and Kα2 unresolved; λ=1.54 Å) produced by a Rigaku Rotaflex RU-200, high-brilliance microfocus generator (Rigaku-MSC, The Woodlands, Tex.) as previously described (Mason et al., Biophys. J., vol. 55(4), pages 769-778 (1989)). The samples were initially subjected to x-ray diffraction analysis at least 12 hours after formation of the membrane pellets and retested for up to several days. Analytical x-rays were generated by electron bombardment of a rotating copper anode and are filtered through a thin nickel foil to provide monochromatic radiation (λ=1.54 Å). Collimation of the x-ray beam was achieved using a single Franks mirror. […]
The d-space for any given membrane multi bilayer is a measurement of the unit cell periodicity of the membrane lipid bilayer (e.g., the distance from the center of one lipid bilayer to the next including surface hydration), and is calculated from Bragg's Law, hλ=2d sin θ, where h is the diffraction order, λ is the wavelength of the x-ray radiation (1.54 Å), d is the membrane lipid bilayer unit cell periodicity, and θ is the Bragg angle equal to one-half the angle between the incident beam and scattered beam.
The presence of cholesterol domains in a given membrane sample results in the production of distinct Bragg (diffraction) peaks having singular periodicity values of 34 and 17 Å (typically referred to as first- and second-order cholesterol domain peaks). Under the specific temperature and relative humidity conditions established for these experiments, the second-order, 17 Å cholesterol domain peak was well-delineated from other, neighboring cholesterol and phospholipid diffraction peaks and was thus used to quantitate relative cholesterol domain peak intensity. […]

sdLDL = experiment: Glucose-induced sdLDL oxidation, MDA/TBARS (Example 10); type: biochemical, human; details: 10.0 μM, glucose 200 mg/dL
Method: Vitamin E (α-tocopherol) purchased from Sigma-Aldrich was prepared in ethanol at 1.0 mM (ε=3.06×10^4 M^−1 cm^−1 at 294 nm) prior to experimental use. Test compounds were further diluted in ethanol or aqueous buffer as needed. Phosphate Buffered Saline (PBS) purchased from Sigma-Aldrich was prepared in double distilled water at 10 mM (138 mM NaCl, 2.7 mM KCl, pH 7.4). […] Lipid oxidation was measured by the colorimetric detection of malondialdehyde (MDA), a marker of oxidative stress.

Row | SMILES | LOOH formation compared to vehicle, glucose, glucose + EA, glucose + ETE [1] | effect on sdLDL oxidation (human sdLDL; 10.0 μM, after 4 hours, vs vehicle or DHA) | inhibition of sdLDL oxidation (TBARS formation) (human sdLDL; each agent at 10 μM, 1 hr, vs vehicle, 10 µM) | inhibition of TBARS formation (unfractionated LDL; unfractionated LDL, vs vehicle) [%] | reduction in cholesterol domain peaks vs vehicle [2] [%] | MDA formation (sdLDL) [µM] | inhibition of sdLDL oxidation (sdLDL; vs vehicle controls) [%] | effect on sdLDL oxidation (human sdLDL; 10 μM, 1 hr, vs vehicle-treated controls) | effect on unfractionated LDL oxidation (unfractionated LDL; vs vehicle-treated controls) | effect on cholesterol domains [2] | effect on glucose-induced sdLDL oxidation (sdLDL)
1 | CC/C=C\C/C=C\C/C=C\C/C=C\C/C=C\CCCC(=O)O [EPA, cis-5,8,11,14,17-eicosapentaenoic acid] | significantly less LOOH formation | significantly inhibited sdLDL oxidation | 93±2% and 92±8% | > 90 | 65 | 0.2 ± 0.1 | 94 | – | – | – | –
2 | O=C(O)c1cccnc1 [Niacin, nicotinic acid] | – | – | – | – | – | – | – | no significant effect | no significant effect | no significant changes in cholesterol domain size | did not inhibit
